Measured values reported in PubChem BioAssay AID330 (DTP/NCI, 2004).
“And” between values parts separate entries of the source, which are not always exact repeats. Equal values may be shown once. Toxic doses and inconclusive results are not listed. Peptide text beside a SMILES is read from it.

Tested on: P388 leukemia ip, CD2F1 mice, survival T/C
Assay: NCI In Vivo Anticancer Drug Screen. Data for tumor model P388 Leukemia (intraperitoneal) in CD2F1 (CDF1) mice
Conditions: endpoint: median survival time, higher = longer survival
Method in brief: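 Mice carrying the transplanted tumor received test compound or vehicle. Survival was recorded in each group, and the value is the treated-group measurement divided by that of the vehicle-treated control group.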

[1] = dose: 100.0 mg/kg/injection, schedule: Q01DX001 (ip), vehicle: saline with Tween-80
[2] = dose: 50.0 mg/kg/injection, schedule: Q01DX009 (ip), vehicle: saline with Tween-80
[3] = dose: 100.0 mg/kg/injection, schedule: Q01DX009 (ip), vehicle: saline with Tween-80
[4] = dose: 200.0 mg/kg/injection, schedule: Q01DX009 (ip), vehicle: saline with Tween-80

COc1cccc2c1C(=O)c1c(O)c3c(c(O)c1C2=O)CC(O)(C(C)=O)CC3OC1CC(NCC2(O)OCC(O)C2O)C(O)C(C)O1 (stereo not given)
T/C (dose: 3.13 mg/kg/injection, schedule: Q04DX003 (ip), vehicle: water): 103 % of control | T/C (dose: 6.25 mg/kg/injection, schedule: Q04DX003 (ip), vehicle: water): 100 % of control | T/C (dose: 12.5 mg/kg/injection, schedule: Q04DX003 (ip), vehicle: water): 117 % of control | T/C (dose: 25.0 mg/kg/injection, schedule: Q04DX003 (ip), vehicle: water): 112 % of control and 113 % of control | T/C (dose: 50.0 mg/kg/injection, schedule: Q04DX003 (ip), vehicle: water): 122 % of control | T/C (dose: 100.0 mg/kg/injection, schedule: Q04DX003 (ip), vehicle: water): 182 % of control | T/C (dose: 200.0 mg/kg/injection, schedule: Q04DX003 (ip), vehicle: water): 108 % of control

CCC(C)C(NC(=O)C(Cc1ccccc1)NC(=O)C(N)CSC)C(N)=O (stereo not drawn) (H-Cys(Me)-Phe-Ile-NH2; configuration not given here)
T/C (dose: 50.0 mg/kg/injection, schedule: Q01DX005 (ip), vehicle: Klucel (hydroxypropylcellulose) (HPC)): 102 % of control | T/C (dose: 100.0 mg/kg/injection, schedule: Q01DX005 (ip), vehicle: Klucel (hydroxypropylcellulose) (HPC)): 99 % of control | T/C (dose: 200.0 mg/kg/injection, schedule: Q01DX005 (ip), vehicle: Klucel (hydroxypropylcellulose) (HPC)): 99 % of control

CCCCCC(CN(C)C)C(/C=C/c1ccccc1Cl)=N\O (stereo not given)
T/C (dose: 50.0 mg/kg/injection, schedule: Q01DX009 (ip), vehicle: saline): 106 % of control | T/C (dose: 100.0 mg/kg/injection, schedule: Q01DX009 (ip), vehicle: saline): 112 % of control

CN(C)C1=C(c2ccccc2)C(=O)C(c2ccccc2)=C1c1ccccc1
T/C (dose: 100.0 mg/kg/injection, schedule: Q04DX003 (ip), vehicle: Klucel (hydroxypropylcellulose) (HPC)): 106 % of control | T/C (dose: 200.0 mg/kg/injection, schedule: Q04DX003 (ip), vehicle: Klucel (hydroxypropylcellulose) (HPC)): 109 % of control | T/C (dose: 400.0 mg/kg/injection, schedule: Q04DX003 (ip), vehicle: Klucel (hydroxypropylcellulose) (HPC)): 109 % of control

c1ccc2c(c1)OC1(CCSCC1)O2
T/C [1]: 95 % of control | T/C (dose: 200.0 mg/kg/injection, schedule: Q01DX001 (ip), vehicle: saline with Tween-80): 95 % of control | T/C (dose: 400.0 mg/kg/injection, schedule: Q01DX001 (ip), vehicle: saline with Tween-80): 100 % of control

O=S1(=O)CCN(C2CCCC2)CC1
T/C (dose: 25.0 mg/kg/injection, schedule: Q01DX009 (ip), vehicle: Klucel (hydroxypropylcellulose) (HPC)): 94 % of control | T/C (dose: 50.0 mg/kg/injection, schedule: Q01DX009 (ip), vehicle: Klucel (hydroxypropylcellulose) (HPC)): 93 % of control and 95 % of control | T/C (dose: 100.0 mg/kg/injection, schedule: Q01DX009 (ip), vehicle: Klucel (hydroxypropylcellulose) (HPC)): 92 % of control and 95 % of control | T/C (dose: 200.0 mg/kg/injection, schedule: Q01DX009 (ip), vehicle: Klucel (hydroxypropylcellulose) (HPC)): 99 % of control and 94 % of control

CCc1nc(N)nc(N)c1-c1ccc(N2CCOCC2)c(N=[N+]=[N-])c1
T/C (dose: 6.25 mg/kg/injection, schedule: Q01DX005 (ip), vehicle: Klucel (hydroxypropylcellulose) (HPC)): 101 % of control | T/C (dose: 12.5 mg/kg/injection, schedule: Q01DX005 (ip), vehicle: Klucel (hydroxypropylcellulose) (HPC)): 100 % of control | T/C (dose: 25.0 mg/kg/injection, schedule: Q01DX005 (ip), vehicle: Klucel (hydroxypropylcellulose) (HPC)): 97 % of control

NS(=O)(=O)c1cc([N+](=O)[O-])ccc1Cl
T/C [2]: 100 % of control | T/C [3]: 100 % of control | T/C [4]: 94 % of control

CCCCCCCCCCCCOCC[N+](CCO)(CCO)Cc1ccccc1
T/C (dose: 0.25 mg/kg/injection, schedule: Q01DX009 (ip), vehicle: saline): 100 % of control | T/C (dose: 0.5 mg/kg/injection, schedule: Q01DX009 (ip), vehicle: saline): 100 % of control | T/C (dose: 1.0 mg/kg/injection, schedule: Q01DX009 (ip), vehicle: saline): 100 % of control

CCC(c1ccc(OCC(=O)N/N=C2/CCC3C4CCc5cc(O)ccc5C4CCC23C)cc1)C(CC)c1ccc(OCC(=O)N/N=C2\CCC3C4CCc5cc(O)ccc5C4CCC23C)cc1 (stereo not given)
T/C (dose: 25.0 mg/kg/injection, schedule: Q01DX001 (ip), vehicle: Klucel (hydroxypropylcellulose) (HPC)): 98 % of control | T/C (dose: 50.0 mg/kg/injection, schedule: Q01DX001 (ip), vehicle: Klucel (hydroxypropylcellulose) (HPC)): 90 % of control

O=C1CSC(=S)N1Cc1ccncc1
T/C [2]: 97 % of control | T/C [3]: 98 % of control | T/C [4]: 101 % of control

C=C1C[C@H](C2OC3OC(C)(C)OC3C2OCc2ccccc2)OC1=O (stereo not given in full)
T/C (dose: 50.0 mg/kg/injection, schedule: Q01DX005 (ip), vehicle: saline with Tween-80): 97 % of control | T/C (dose: 100.0 mg/kg/injection, schedule: Q01DX005 (ip), vehicle: saline with Tween-80): 98 % of control | T/C (dose: 200.0 mg/kg/injection, schedule: Q01DX005 (ip), vehicle: saline with Tween-80): 100 % of control

CCCCCCCCCC(C)CCCCC (stereo not given)
T/C (dose: 25.0 mg/kg/injection, schedule: Q01DX001 (ip), vehicle: saline with Tween-80): 90 % of control | T/C (dose: 50.0 mg/kg/injection, schedule: Q01DX001 (ip), vehicle: saline with Tween-80): 100 % of control | T/C [1]: 100 % of control

O=C1N[C@@H]2C(=C[C@H](O)[C@@H](O)[C@H]2O)c2cc3c(c(O)c21)OCO3
T/C (dose: 0.62 mg/kg/injection, schedule: Q01DX009 (ip), vehicle: saline with Tween-80): 110 % of control | T/C (dose: 5.0 mg/kg/injection, schedule: Q01DX009 (ip), vehicle: saline with Tween-80): 100 % of control | T/C (dose: 10.0 mg/kg/injection, schedule: Q01DX009 (ip), vehicle: saline with Tween-80): 87 % of control
